Measured values as given in US7563903B2, “Acylaminothiazole derivatives, their preparation and their therapeutic use” (Sanofi-Aventis, priority 2003, dated 2009).

Row | SMILES | melting point
1 | CCC[C@H](NC(=O)[C@@H](O)C(C)(C)C)C(=O)Nc1ncc(-c2ccccc2COc2c(OC)cccc2OC)s1 [compound 31, (2S)—N-(5-{2-[(2,6-dimethoxyphenoxy)methyl]phenyl}-1,3-thiazol-2-yl)-2-{[(2S)-2-hydroxy-3,3-dimethylbutanoyl]amino}pentanamide] | 69.5 °C
2 | CCC[C@H](NC(=O)[C@@H](O)C(C)(C)C)C(=O)Nc1ncc(-c2ccccc2COc2ccc(C)cc2C)s1 [compound 32, (2S)—N-(5-{2-[(2,4-dimethylphenoxy)methyl]phenyl}-1,3-thiazol-2-yl)-2-{[(2S)-2-hydroxy-3,3-dimethylbutanoyl]amino}pentanamide] | 86 °C
3 | CCC[C@H](NC(=O)[C@@H](O)C(C)(C)C)C(=O)Nc1ncc(-c2ccccc2COc2cc(C)ccc2C)s1 [compound 33, (2S)—N-(5-{2-[(2,5-dimethylphenoxy)methyl]phenyl}-1,3-thiazol-2-yl)-2{[(2S)-2-hydroxy-3,3-dimethylbutanoyl]amino}pentanamide] | 87 °C
4 | CCC[C@H](NC(=O)[C@@H](O)C(C)(C)C)C(=O)Nc1nc(C)c(-c2ccccc2COc2ccccc2)s1 [compound 34, (2S)-2-{[(2S)-2-hydroxy-3,3-dimethylbutanoyl]amino}-N-{4-methyl-5-[2-(phenoxymethyl)phenyl]-1,3-thiazol-2-yl}pentanamide] | 99 °C
5 | CCC[C@@H](NC(=O)[C@@H](O)C(C)(C)C)C(=O)Nc1ncc(-c2ccccc2COc2ccccc2)s1 [compound 35, (2R)-2-{[(2S)-2-hydroxy-3,3-dimethylbutanoyl]amino}-N-{5-[2-(phenoxymethyl)phenyl]-1,3-thiazol-2-yl}pentanamide] | 78.5 °C
6 | CCC[C@H](NC(=O)[C@@H](O)C(C)(C)C)C(=O)Nc1ncc(-c2ccccc2COc2ccccc2C)s1 [compound 36, (2S)-2-{[(2S)-2-hydroxy-3,3-dimethylbutanoyl]amino}-N-(5-{2-[(2-methylphenoxy)methyl]phenyl}-1,3-thiazol-2-yl}pentanamide] | 96.5 °C
7 | CCC[C@H](NC(=O)C(O)C(C)(C)C)C(=O)Nc1ncc(-c2ccccc2COc2ccccc2OC)s1 (stereo partly drawn) [compound 38, (2S)-2-[(2-hydroxy-3,3-dimethylbutanoyl)amino]-N-(5-{2-[(2-methoxyphenoxy)methyl]phenyl}-1,3-thiazol-2-yl}pentanamide] | 85 °C
8 | CCC[C@H](NC(=O)C(O)C(C)(C)C)C(=O)Nc1ncc(-c2ccccc2COc2ccccc2OCC)s1 (stereo partly drawn) [compound 39, (2S)—N-(5-{2-[(2-ethoxyphenoxy)methyl]phenyl}-1,3-thiazol-2-yl)-2-[(2-hydroxy-3,3-dimethylbutanoyl)amino]pentanamide] | 88 °C
9 | CCC[C@H](NC(=O)C(O)C(C)(C)C)C(=O)Nc1ncc(-c2ccccc2COc2c(Cl)cccc2Cl)s1 (stereo partly drawn) [compound 41, (2S)—N-(5-{2-[(2,6-dichlorophenoxy)methyl]phenyl}-1,3-thiazol-2-yl)-2-[(2-hydroxy-3,3-dimethylbutanoyl)amino]pentanamide] | 126 °C
10 | CCC[C@H](NC(=O)[C@@H](O)C(C)(C)C)C(=O)Nc1ncc(-c2ccc(OC)cc2COC(C)C)s1 [compound 44, (2S)-2-{[(2S)-2-hydroxy-3,3-dimethylbutanoyl]amino}-N-{5-[2-(isopropoxymethyl)-4-methoxyphenyl]-1,3-thiazol-2-yl}pentanamide] | 79 °C
11 | CCC[C@H](NC(=O)[C@@H](O)C(C)(C)C)C(=O)Nc1ncc(-c2ccccc2COc2c(F)cccc2F)s1 [compound 46, (2S)—N-(5-{2-[(2,6-difluorophenoxy)methyl]phenyl}-1,3-thiazol-2-yl)-2-{[(2S)-2-hydroxy-3,3-dimethylbutanoyl]amino}pentanamide] | 63.5 °C
12 | CCC[C@H](NC(=O)[C@@H](O)C(C)(C)C)C(=O)Nc1ncc(-c2ccc(Cl)cc2COc2ccccc2)s1 [compound 47, (2S)—N-{5-[4-chloro-2-(phenoxymethyl)phenyl]-1,3-thiazol-2-yl}-2-{[(2S)-2-hydroxy-3,3-dimethylbutanoyl]amino}pentanamide] | 93.5 °C
13 | CCC[C@H](NC(=O)[C@@H](O)C(C)(C)C)C(=O)Nc1ncc(-c2ccc(F)cc2COc2ccccc2)s1 [compound 48, (2S)—N-{5-[4-fluoro-2-(phenoxymethyl)phenyl]-1,3-thiazol-2-yl}-2-{[(2S)-2-hydroxy-3,3-dimethylbutanoyl]amino}pentanamide] | 75.5 °C
14 | CCC[C@H](NC(=O)[C@@H](O)CC(C)C)C(=O)Nc1ncc(-c2ccccc2COC2CCCCC2)s1 [compound 51, (2S)—N-((1S)-1-{[(5-{2-[(cyclohexyloxy)methyl]phenyl}-1,3-thiazol-2-yl)amino]carbonyl}butyl)-2-hydroxy-4-methylpentanamide] | 158 °C
15 | CCC[C@H](NC(=O)[C@@H](O)C(C)(C)C)C(=O)Nc1ncc(-c2ccc(OCC)cc2COc2ccccc2)s1 [compound 52, (2S)—N-{5-[4-ethoxy-2-(phenoxymethyl)phenyl]-1,3-thiazol-2-yl}-2-{[(2S)-2-hydroxy-3,3-dimethylbutanoyl]amino}pentanamide] | 81 °C
16 | CCC[C@H](NC(=O)[C@@H](O)C(C)(C)C)C(=O)Nc1ncc(-c2cc(F)ccc2COc2ccccc2)s1 [compound 54, (2S)—N-{5-[5-fluoro-2-(phenoxymethyl)phenyl]-1,3-thiazol-2-yl}-2-{[(2S)-2-hydroxy-3,3-dimethylbutanoyl]amino}pentanamide] | 105.4 °C
17 | CCC[C@H](NC(=O)[C@@H](O)C(C)(C)C)C(=O)Nc1ncc(-c2ccccc2COC2CCCCC2)s1 [compound 57, (2S)—N-(5-{2-[(cyclohexyloxy)methyl]phenyl}-1,3-thiazol-2-yl)-2-{[(2S)-2-hydroxy-3,3-dimethylbutanoyl]amino}pentanamide] | 88 °C
18 | C[C@H](NC(=O)[C@@H](O)C(C)(C)C)C(=O)Nc1ncc(-c2ccccc2COc2ccccc2)s1 [compound 58, (2S)-2-hydroxy-3,3-dimethyl-N-[(1S)-1-methyl-2-oxo-2-({5-[2-(phenoxymethyl)phenyl]-1,3-thiazol-2-yl}amino)ethyl]butanamide] | 118.6 °C
19 | CCC[C@H](NC(=O)[C@@H](O)C(C)(C)C)C(=O)Nc1ncc(-c2ccccc2COc2cccc(C#N)c2)s1 [compound 61, (2S)—N-(5-{2-[(3-cyanophenoxy)methyl]phenyl}-1,3-thiazol-2-yl)-2-{[(2S)-2-hydroxy-3,3-dimethylbutanoyl]amino}pentanamide] | 162.6 °C
20 | CCC[C@H](NC(=O)[C@@H](O)C(C)(C)C)C(=O)Nc1ncc(-c2ccccc2COc2cccc(F)c2)s1 [compound 62, (2S)—N-(5-{2-[(3-fluorophenoxy)methyl]phenyl}-1,3-thiazol-2-yl)-2-{[(2S)-2-hydroxy-3,3-dimethylbutanoyl]amino}pentanamide] | 160.2 °C

The next lines start with the values.

Row | melting point | SMILES
21 | 141 °C | CCC[C@H](NC(=O)[C@@H](O)C(C)C)C(=O)Nc1ncc(-c2ccccc2COc2ccccc2)s1 [compound 37, (2S)-2-{[(2S)-2-hydroxy-3-methylbutanoyl]amino}-N-{5-[2-(phenoxymethyl)phenyl]-1,3-thiazol-2-yl}pentanamide]
22 | 159.5 °C | CCC[C@H](NC(=O)[C@@H](O)C(C)C)C(=O)Nc1ncc(-c2ccc(OC)cc2COc2ccccc2)s1 [compound 49, (2S)-2-{[(2S)-2-hydroxy-3-methylbutanoyl]amino}-N-{5-[4-methoxy-2-(phenoxymethyl)phenyl]-1,3-thiazol-2-yl}pentanamide]
23 | 107.8 °C | CCC[C@H](NC(=O)[C@@H](O)C(C)C)C(=O)Nc1ncc(-c2ccc(OCC)cc2COc2ccccc2)s1 [compound 53, (2S)—N-{5-[4-ethoxy-2-(phenoxymethyl)phenyl]-1,3-thiazol-2-yl}-2-{[(2S)-2-hydroxy-3-methylbutanoyl]amino}pentanamide]
24 | 120.7 °C | CCC[C@H](NC(=O)[C@@H](O)C(C)(C)C)C(=O)Nc1ncc(-c2cc(Cl)ccc2COc2ccccc2)s1 [compound 55, (2S)—N-{5-[5-chloro-2-(phenoxymethyl)phenyl]-1,3-thiazol-2-yl}-2-{[(2S)-2-hydroxy-3,3-dimethylbutanoyl]amino}pentanamide]
25 | 61.4 °C | CCC[C@H](NC(=O)[C@@H](O)C(C)C)C(=O)Nc1ncc(-c2cc(F)ccc2COc2ccccc2)s1 [compound 56, (2S)—N-{5-[5-fluoro-2-(phenoxymethyl)phenyl]-1,3-thiazol-2-yl}-2-{[(2S)-2-hydroxy-3-methylbutanoyl]amino}pentanamide]
26 | 92.6 °C | CCC[C@H](NC(=O)[C@@H](O)C(C)(C)C)C(=O)Nc1ncc(-c2ccc(C)cc2COc2ccccc2)s1 [compound 59, (2S)-2-{[(2S)-2-hydroxy-3,3-dimethylbutanoyl]amino}-N-{5-[4methyl-2-(phenoxymethyl)phenyl]-1,3-thiazol-2-yl}pentanamide]
27 | 125.5 °C | CCC[C@H](NC(=O)[C@@H](O)C(C)C)C(=O)Nc1ncc(-c2cc(C)ccc2COc2ccccc2)s1 [compound 60, (2S)-2-{[(2S)-2-hydroxy-3-methylbutanoyl]amino}-N-{5-[5-methyl-2-(phenoxymethyl)phenyl]-1,3-thiazol-2-yl}pentanamide]
28 | 130.7 °C | CCC[C@H](NC(=O)[C@@H](O)C(C)C)C(=O)Nc1ncc(-c2ccccc2COc2cccc(F)c2)s1 [compound 63, (2S)—N-(5-{2-[(3-fluorophenoxy)methyl]phenyl}-1,3-thiazol-2-yl)-2-{[(2S)-2-hydroxy-3-methylbutanoyl]amino}pentanamide]
29 | 170 °C | CCC[C@H](NC(=O)[C@@H](O)C(C)(C)C)C(=O)Nc1ncc(-c2cc(C)ccc2COc2ccccc2)s1 [compound 64, (2S)-2-{[(2S)-2-hydroxy-3,3-dimethylbutanoyl]amino}-N-{5-[5-methyl-2-(phenoxymethyl)phenyl]-1,3-thiazol-2-yl}pentanamide]
30 | 135.5 °C | CCC[C@H](NC(=O)[C@@H](O)C(C)C)C(=O)Nc1ncc(-c2ccc(C)cc2COc2ccccc2)s1 [compound 65, (2S)-2-{[(2S)-2-hydroxy-3-methylbutanoyl]amino}-N-{5-[4-methyl-2-(phenoxymethyl)phenyl]-1,3-thiazol-2-yl}pentanamide]
